Test results reported in the NIST ThermoML archive (doi:10.1021/je400004j).
± gives the expanded uncertainty stated by the source.

Assays:
[1] = 298.15 K; for surface tension liquid-gas: Ring tensiometer; for mass density: 101.33 kPa, Liquid, Vibrating tube method
[2] = xn = mol fraction of the nth substance listed; details: 298.15 K, Ring tensiometer, x2 = 0

Structure (SMILES)	surface tension liquid-gas [1]	mass density [1]	surface tension liquid-gas [2]
CCOP(=O)([O-])OCC.CCn1cc[n+](CC)c1 [1,3-diethyl-1H-imidazol-3-ium diethyl phosphate]	35.5 ± 0.5 mN/m	1125.96 ± 0.15 kg/m3	
COP(=O)([O-])OC.Cn1cc[n+](C)c1 [1,3-dimethylimidazolium dimethylphosphate]	48.4 ± 0.6 mN/m	1252.6 ± 0.22 kg/m3	
CCCCn1cc[n+](CC)c1.CCOP(=O)([O-])OCC [1-butyl-3-ethyl-1H-imidazol-3-ium diethyl phosphate]	32.2 ± 0.5 mN/m	1083.21 ± 0.1 kg/m3	
CCCCn1cc[n+](C)c1.COP(=O)([O-])OC [1-butyl-3-methyl-1H-imidazolium dimethylphosphate]	38 ± 0.5 mN/m		
CCCCOP(=O)([O-])OCCCC.CCCCn1cc[n+](C)c1 [1-butyl-3-methylimidazolium dibutyl phosphate]	29.4 ± 0.4 mN/m	1046.18 ± 0.09 kg/m3	
CCOP(=O)([O-])OCC.CCn1cc[n+](C)c1 [1-ethyl-3-methylimidazolium diethyl phosphate]	37.1 ± 0.5 mN/m	1148.86 ± 0.14 kg/m3	
CCn1cc[n+](C)c1.COP(=O)([O-])OC [1-ethyl-3-methylimidazolium dimethylphosphate]	44.3 ± 0.62 mN/m		
CCO [ethanol]	21.9 ± 0.3 mN/m	785.83 ± 0.17 kg/m3	
CCO [ethanol] + CCCCn1cc[n+](CC)c1.CCOP(=O)([O-])OCC			21.9 ± 0.3 mN/m
CCO [ethanol] + CCOP(=O)([O-])OCC.CCn1cc[n+](C)c1			21.9 ± 0.3 mN/m
CCO [ethanol] + CCOP(=O)([O-])OCC.CCn1cc[n+](CC)c1			21.9 ± 0.3 mN/m
CCO [ethanol] + CCn1cc[n+](C)c1.COP(=O)([O-])OC			21.9 ± 0.3 mN/m
CCO [ethanol] + COP(=O)([O-])OC.Cn1cc[n+](C)c1			21.9 ± 0.3 mN/m
CO [methanol]	22.4 ± 0.3 mN/m	786.55 ± 0.17 kg/m3	
CO [methanol] + CCCCOP(=O)([O-])OCCCC.CCCCn1cc[n+](C)c1			22.4 ± 0.3 mN/m
CO [methanol] + CCCCn1cc[n+](C)c1.COP(=O)([O-])OC			22.4 ± 0.3 mN/m
CO [methanol] + CCCCn1cc[n+](CC)c1.CCOP(=O)([O-])OCC			22.4 ± 0.3 mN/m
CO [methanol] + CCOP(=O)([O-])OCC.CCn1cc[n+](C)c1			22.4 ± 0.3 mN/m
CO [methanol] + CCOP(=O)([O-])OCC.CCn1cc[n+](CC)c1			22.4 ± 0.3 mN/m
CO [methanol] + CCn1cc[n+](C)c1.COP(=O)([O-])OC			22.4 ± 0.3 mN/m
CO [methanol] + COP(=O)([O-])OC.Cn1cc[n+](C)c1			22.4 ± 0.3 mN/m
O [water]	71.9 ± 0.9 mN/m		
O [water] + CCCCOP(=O)([O-])OCCCC.CCCCn1cc[n+](C)c1			71.9 ± 0.9 mN/m
O [water] + CCCCn1cc[n+](C)c1.COP(=O)([O-])OC			71.9 ± 0.9 mN/m
O [water] + CCCCn1cc[n+](CC)c1.CCOP(=O)([O-])OCC			71.9 ± 0.9 mN/m
O [water] + CCOP(=O)([O-])OCC.CCn1cc[n+](C)c1			71.9 ± 0.9 mN/m
O [water] + CCOP(=O)([O-])OCC.CCn1cc[n+](CC)c1			71.9 ± 0.9 mN/m
O [water] + CCn1cc[n+](C)c1.COP(=O)([O-])OC			71.9 ± 0.91 mN/m
O [water] + COP(=O)([O-])OC.Cn1cc[n+](C)c1			71.9 ± 0.9 mN/m
